Earlier results as cited in patent publication US20080234349A1, “PPAR active compounds” (priority 2005, published 2008).

Tests used:
[1] = recent large prospective trial, patients
PPARδ = target: T1, PPARδ (Homo sapiens, UniProt Q03181)
T1 sequence (Q03181 1-441): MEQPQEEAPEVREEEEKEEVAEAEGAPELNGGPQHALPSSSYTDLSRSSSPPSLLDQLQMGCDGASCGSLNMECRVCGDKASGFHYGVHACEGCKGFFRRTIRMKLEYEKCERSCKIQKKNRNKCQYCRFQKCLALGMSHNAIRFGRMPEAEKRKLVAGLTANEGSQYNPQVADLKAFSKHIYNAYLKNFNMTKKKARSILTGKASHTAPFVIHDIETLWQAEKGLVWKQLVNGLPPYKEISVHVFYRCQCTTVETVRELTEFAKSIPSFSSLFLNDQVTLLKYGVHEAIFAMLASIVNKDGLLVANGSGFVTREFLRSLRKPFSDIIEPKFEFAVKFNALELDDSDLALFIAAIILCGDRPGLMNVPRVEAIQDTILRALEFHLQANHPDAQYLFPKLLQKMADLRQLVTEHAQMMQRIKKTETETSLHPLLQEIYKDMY

murine PPARα = target: T2, murine PPARα (Mus musculus, UniProt P23204)
T2 sequence (P23204 1-468): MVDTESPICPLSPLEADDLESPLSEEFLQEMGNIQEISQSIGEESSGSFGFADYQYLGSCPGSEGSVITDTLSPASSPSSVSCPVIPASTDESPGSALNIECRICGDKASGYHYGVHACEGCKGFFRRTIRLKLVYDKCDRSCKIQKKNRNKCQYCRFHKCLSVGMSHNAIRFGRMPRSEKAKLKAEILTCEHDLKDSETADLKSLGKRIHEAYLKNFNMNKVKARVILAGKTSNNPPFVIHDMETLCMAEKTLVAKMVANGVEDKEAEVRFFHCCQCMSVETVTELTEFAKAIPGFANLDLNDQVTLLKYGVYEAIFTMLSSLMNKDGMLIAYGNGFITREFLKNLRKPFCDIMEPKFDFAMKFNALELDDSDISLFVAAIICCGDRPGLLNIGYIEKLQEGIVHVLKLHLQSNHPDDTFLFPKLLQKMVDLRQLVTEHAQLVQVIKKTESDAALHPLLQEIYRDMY

Row | SMILES | reduction in cardiovascular events or death [1] [%] | agonist selectivity for PPARδ over PPARγ (PPARδ) | activity on murine PPARα (murine PPARα)
1 | Cc1ccc(C)c(OCCCC(C)(C)C(=O)O)c1 [gemfibrozil] | 22 |  | 
2 | CCCc1c(OCCCOc2ccc(OCC(=O)O)cc2)ccc(C(C)=O)c1O [Compound L-165041] |  | approximately 30 fold | inactive
